In publication PMC8073005, “Antifungal Activity and DNA Topoisomerase Inhibition of Hydrolysable Tannins from Punica granatum L” (International Journal of Molecular Sciences, 2021):
In brackets after ≈: the same amount, converted by molar mass. Several values for one entry are separate records, joined by “and”; a condition that tells them apart may be missing. Equal entries are not always repeated. Where two headings read alike, the source gives them in different places.

Legend:
Cryptococcus 67 = assay: MIC, broth microdilution (human pathogens); type: cell-based; settings: Cryptococcus 67; SDB, 30 °C, 48 h; read-out: Minimum inhibitory concentration (MIC)
Botrytis cinerea B2 = assay: MIC, micro-spectrophotometric growth assay (phytopathogens); type: cell-based; settings: for MIC: Botrytis cinerea B2, PDB, 24 °C, dark, imazalil at label dose, read-out: Minimum inhibitory concentration (MIC)
Candida parapsilosis = assay: MIC, broth microdilution (human pathogens); type: cell-based; settings: Lodderomyces parapsilosis; Candida parapsilosis; SDB, 30 °C, 48 h; read-out: Minimum inhibitory concentration (MIC)
Candida albicans 44 = assay: MIC, broth microdilution (human pathogens); type: cell-based; settings: Candida albicans 44; SDB, 30 °C, 48 h; read-out: Minimum inhibitory concentration (MIC)
[1] = target: T1, topoisomerase I from Candida albicans (Candida albicans, UniProt Q00313); assay: Topoisomerase I supercoiled DNA relaxation inhibition; type: biochemical; settings: mean ± SD; relaxation of supercoiled pBR322; concentration range 0.001–200 μM; read-out: IC50 Value Topoisomerase I
T1 sequence (Q00313 1-778): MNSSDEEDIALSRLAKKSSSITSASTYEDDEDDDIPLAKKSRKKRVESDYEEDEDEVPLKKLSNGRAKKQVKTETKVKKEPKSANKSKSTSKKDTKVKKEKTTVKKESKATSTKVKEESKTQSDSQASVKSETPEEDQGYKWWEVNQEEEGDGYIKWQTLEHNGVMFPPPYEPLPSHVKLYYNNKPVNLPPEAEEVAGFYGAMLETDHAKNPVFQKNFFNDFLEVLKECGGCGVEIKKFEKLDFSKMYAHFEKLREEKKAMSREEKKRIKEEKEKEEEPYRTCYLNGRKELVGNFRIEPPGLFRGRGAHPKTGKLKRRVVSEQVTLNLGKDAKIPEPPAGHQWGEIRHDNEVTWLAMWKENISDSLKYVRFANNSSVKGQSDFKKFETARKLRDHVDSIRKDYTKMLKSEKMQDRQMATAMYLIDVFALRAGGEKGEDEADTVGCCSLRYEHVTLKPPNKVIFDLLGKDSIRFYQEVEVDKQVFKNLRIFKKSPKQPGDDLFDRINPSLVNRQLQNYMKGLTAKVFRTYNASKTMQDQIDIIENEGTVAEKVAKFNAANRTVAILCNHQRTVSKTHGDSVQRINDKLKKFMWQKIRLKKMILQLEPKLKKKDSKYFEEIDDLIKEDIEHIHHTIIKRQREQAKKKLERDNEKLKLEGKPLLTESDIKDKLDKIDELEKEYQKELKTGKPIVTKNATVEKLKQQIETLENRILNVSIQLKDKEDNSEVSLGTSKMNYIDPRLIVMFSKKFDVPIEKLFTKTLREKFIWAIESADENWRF

[2] = system: Colletotrichum acutatum s.s. M146-2; assay: MIC, micro-spectrophotometric growth assay (phytopathogens); type: cell-based, Colletotrichum acutatum sensu stricto; settings: for MIC: Colletotrichum acutatum s.s. M146-2, PDB, 24 °C, dark, imazalil at label dose, read-out: Minimum inhibitory concentration (MIC)
Candida albicans SC 5314 = assay: MIC, broth microdilution (human pathogens); type: cell-based; settings: SC5314; Candida albicans SC 5314; SDB, 30 °C, 48 h; read-out: Minimum inhibitory concentration (MIC)
Aspergillus candidus 25 = assay: MIC, broth microdilution (human pathogens); type: cell-based; settings: Aspergillus candidus 25; SDB, 30 °C, 48 h; read-out: Minimum inhibitory concentration (MIC)
[3] = system: C. albicans 1 (clinically isolated strain); assay: Time-kill curves; type: cell-based, Candida albicans; settings: compound at its MIC value, 0–96 h
[4] = system: Alternaria alternata AL19; assay: MIC, micro-spectrophotometric growth assay (phytopathogens); type: cell-based; settings: for MIC: Alternaria alternata AL19, PDB, 24 °C, dark, imazalil at label dose, read-out: Minimum inhibitory concentration (MIC)
Aspergillus candidus 3 = assay: MIC, broth microdilution (human pathogens); type: cell-based; settings: Aspergillus candidus 3; SDB, 30 °C, 48 h; read-out: Minimum inhibitory concentration (MIC)
[5] = system: Saccharomyces cerevisiae 42; assay: MIC, broth microdilution (human pathogens); type: cell-based; settings: Saccharomyces cerevisiae 42; SDB, 30 °C, 48 h; read-out: Minimum inhibitory concentration (MIC)
Candida strains = assay: Agar Disk Diffusion Assay, Candida strains; type: cell-based
Coniella granati M0_C2 = assay: MIC, micro-spectrophotometric growth assay (phytopathogens); type: cell-based; settings: for growth reduction: C. granati, 48 h of incubation; for MIC: Coniella granati M0_C2, PDB, 24 °C, dark, imazalil at label dose, read-out: Minimum inhibitory concentration (MIC)
Candida zeylanoides 33 = assay: MIC, broth microdilution (human pathogens); type: cell-based; settings: Dujonia zeylanoides; Candida zeylanoides 33; SDB, 30 °C, 48 h; read-out: Minimum inhibitory concentration (MIC)
[6] = system: Cryptococcus neoformans B 3501; assay: MIC, broth microdilution (human pathogens); type: cell-based; settings: B3501; Cryptococcus neoformans B 3501; SDB, 30 °C, 48 h; read-out: Minimum inhibitory concentration (MIC)
[7] = system: Aspergillus brasiliensis ATCC 16404; assay: MIC, broth microdilution (human pathogens); type: cell-based; settings: ATCC16404; Aspergillus brasiliensis ATCC 16404; SDB, 30 °C, 48 h; read-out: Minimum inhibitory concentration (MIC)
[8] = system: Candida albicans ATCC 10321; assay: MIC, broth microdilution (human pathogens); type: cell-based; settings: ATCC10321; Candida albicans ATCC 10321; SDB, 30 °C, 48 h; read-out: Minimum inhibitory concentration (MIC)
Candida albicans H = assay: MIC, broth microdilution (human pathogens); type: cell-based; settings: Candida albicans H; SDB, 30 °C, 48 h; read-out: Minimum inhibitory concentration (MIC)
Candida albicans 41 = assay: MIC, broth microdilution (human pathogens); type: cell-based; settings: Candida albicans 41; SDB, 30 °C, 48 h; read-out: Minimum inhibitory concentration (MIC)
[9] = system: Cryptococcus neoformans ATCC 11240; assay: MIC, broth microdilution (human pathogens); type: cell-based; settings: ATCC11240; Cryptococcus neoformans ATCC 11240; SDB, 30 °C, 48 h; read-out: Minimum inhibitory concentration (MIC)
[10] = system: Cryptococcus var. grubii H99 serotype A; assay: MIC, broth microdilution (human pathogens); type: cell-based; settings: Cryptococcus var. grubii H99 serotype A; SDB, 30 °C, 48 h; read-out: Minimum inhibitory concentration (MIC)

SMILES | MIC (Cryptococcus 67) [µM] | MIC (Botrytis cinerea B2) | MIC (Candida parapsilosis) [µM] | MIC (Candida albicans 44) [µM] | IC50 [1] [µM] | MIC [2] [µM] | MIC ([2]; S.S.M1462) [µM] | MIC (Candida albicans SC 5314) [µM] | MIC (Aspergillus candidus 25) [µM] | time-kill curve (susceptibility time-course) [3] | MIC [4] | MIC (Aspergillus candidus 3) [µM] | MIC [5] [µM] | growth reduction (Coniella granati M0_C2) | MIC (Coniella granati M0_C2) | MIC (Candida zeylanoides 33) [µM] | MIC [6] [µM] | MIC [7] [µM] | MIC [8] [µM] | MIC (Candida albicans H) [µM] | further results
O=C1OC[C@H]2OC(O)[C@H](O)[C@@H](O)[C@@H]2OC(=O)c2cc(O)c(O)c(O)c2-c2c(O)c(O)c3oc(=O)c4c(c(O)c(O)c5oc(=O)c2c3c54)-c2c1cc(O)c(O)c2O (mixture of isomers) [Punicalin, punicalin] | 127 | 255.6 µM and 256 µM | 127 | 127 | 14.7 ± 0.9 | 255.6 | 256 | 127 | 127 | after 60 h of incubation, punicalin becomes less effective than punicalagin | 255.6 µM and 256 µM | 127 | 3.8 | up to 92% | 255.6 µM and 256 µM | 127 | 1.9 | 1.9 | 127 | 1.9 | growth reduction ([2]; C. acutatum s.s., up to 24 h of incubation): 83%; share of Candida strains with inhibition zone from 11 to 20 mm (Candida strains; 100 µg): 91%; MIC (Candida albicans 41): 127 µM; MIC [9]: 1.9 µM; MIC [10]: 127 µM
O=c1oc2c(O)c(O)cc3c(=O)oc4c(O)c(O)cc1c4c23 [Ellagic Acid, ellagic acid] | 662 (≈ 200 µg/mL) | 165.4 µM and 165 µM | 662 (≈ 200 µg/mL) | 2.5 (≈ 0.755 µg/mL) | 56.6 ± 1.2 | 165.4 (≈ 50 µg/mL) | 165 (≈ 50 µg/mL) | 2.5 (≈ 0.755 µg/mL) | 662 (≈ 200 µg/mL) | lowest activity compared with the other compounds | 165.4 µM and 165 µM | 662 (≈ 200 µg/mL) | 662 (≈ 200 µg/mL) | up to 60% | 165.4 µM and 165 µM | 331 (≈ 100 µg/mL) | 331 (≈ 100 µg/mL) | 662 (≈ 200 µg/mL) | 2.5 (≈ 0.755 µg/mL) | 331 (≈ 100 µg/mL) | antifungal activity (growth curve) (Botrytis cinerea B2; B. cinerea, Figure S3): no or little antifungal activity; antifungal activity (growth curve) ([4]; A. alternata, Figure S3): no or little antifungal activity; share of Candida strains with inhibition zone from 21 to 30 mm (Candida strains; 25 μg): 64%; share of Candida tested strains with growth inhibition zone from 11 to 20 mm (Candida strains; 25 μg): 36%; share of Candida strains with growth inhibition from 21 to 30 mm (Candida strains; 62.5 µg): 73%; MIC (Candida albicans 41): 331 µM (≈ 100 µg/mL); MIC [9]: 331 µM (≈ 100 µg/mL); MIC [10]: 662 µM (≈ 200 µg/mL)
